Results from PubChem BioAssay (NCI).
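Five compound concentrations were applied to cells in 96-well plates for 48 hours; endpoints were derived by simple linear interpolation of the resulting dose-response curve. Abbreviation: GI50, concentration required for 50% inhibition of growth. Definition used: TGI = concentration required for complete inhibition of growth.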

How the values were obtained:
Experiment in all cases: inhibition of tumour cell growth, NCI panel, 48 h
786-0 renal = system: 786-0 renal
A498 renal = system: A498 renal
A549 NSCLC = system: A549 NSCLC
ACHN renal = system: ACHN renal
BT-549 breast = system: BT-549 breast
CAKI-1 renal = system: CAKI-1 renal
CCRF-CEM leukemia = system: CCRF-CEM leukemia
COLO 205 colon = system: COLO 205 colon
DU-145 prostate = system: DU-145 prostate
EKVX NSCLC = system: EKVX NSCLC
HCC-2998 colon = system: HCC-2998 colon
HCT-116 colon = system: HCT-116 colon
HCT-15 colon = system: HCT-15 colon
HL-60(TB) leukemia = system: HL-60(TB) leukemia
HOP-62 NSCLC = system: HOP-62 NSCLC
HOP-92 NSCLC = system: HOP-92 NSCLC
HS 578T breast = system: HS 578T breast
HT29 colon = system: HT29 colon
IGROV1 ovarian = system: IGROV1 ovarian
K-562 leukemia = system: K-562 leukemia
KM12 colon = system: KM12 colon
LOX IMVI melanoma = system: LOX IMVI melanoma
M14 melanoma = system: M14 melanoma
MALME-3M melanoma = system: MALME-3M melanoma
MCF7 breast = system: MCF7 breast
MDA-MB-231 breast = system: MDA-MB-231 breast
MDA-MB-435 = system: MDA-MB-435
MDA-MB-468 breast = system: MDA-MB-468 breast
MOLT-4 leukemia = system: MOLT-4 leukemia
NCI-H226 lung = system: NCI-H226 lung
NCI-H23 lung = system: NCI-H23 lung
NCI-H460 lung = system: NCI-H460 lung
NCI-H522 lung = system: NCI-H522 lung
NCI/ADR-RES ovarian = system: NCI/ADR-RES ovarian
OVCAR-3 ovarian = system: OVCAR-3 ovarian
OVCAR-4 ovarian = system: OVCAR-4 ovarian
OVCAR-5 ovarian = system: OVCAR-5 ovarian
OVCAR-8 ovarian = system: OVCAR-8 ovarian
PC-3 prostate = system: PC-3 prostate
RPMI-8226 leukemia = system: RPMI-8226 leukemia
RXF 393 renal = system: RXF 393 renal
SF-268 CNS = system: SF-268 CNS
SF-295 CNS = system: SF-295 CNS
SF-539 CNS = system: SF-539 CNS
SK-MEL-2 melanoma = system: SK-MEL-2 melanoma
SK-MEL-28 melanoma = system: SK-MEL-28 melanoma
SK-MEL-5 melanoma = system: SK-MEL-5 melanoma
SK-OV-3 ovarian = system: SK-OV-3 ovarian
SN12C renal = system: SN12C renal
SNB-19 CNS = system: SNB-19 CNS
SNB-75 CNS = system: SNB-75 CNS
SR leukemia = system: SR leukemia
SW-620 colon = system: SW-620 colon
T-47D breast = system: T-47D breast
TK-10 renal = system: TK-10 renal
U251 CNS = system: U251 CNS
UACC-257 melanoma = system: UACC-257 melanoma
UACC-62 melanoma = system: UACC-62 melanoma
UO-31 renal = system: UO-31 renal

Q: What does the source list for `CC[C@@]12CC(C(=O)OC)=C3Nc4cc5c(cc4[C@@]34CCN(C[C@H]3O[C@H]31)[C@@H]24)[C@@H]1[C@H](O5)[C@@H](O)[C@@]2(CC)CC(C(=O)OC)=C3Nc4cc(OC)ccc4[C@@]34CCN1[C@@H]24`?
A: GI50 (786-0 renal): 0.267 µM; TGI (786-0 renal): > 54 µM; GI50 (A498 renal): 0.698 µM; TGI (A498 renal): 24.7 µM; GI50 (A549 NSCLC): 0.706 µM; TGI (A549 NSCLC): > 54 µM; GI50 (ACHN renal): 0.727 µM; TGI (ACHN renal): 15.2 µM; GI50 (BT-549 breast): 0.307 µM; TGI (BT-549 breast): > 13.1 µM; GI50 (CAKI-1 renal): 0.142 µM; TGI (CAKI-1 renal): > 54 µM; GI50 (CCRF-CEM leukemia): 0.376 µM; TGI (CCRF-CEM leukemia): > 54 µM; GI50 (COLO 205 colon): 0.356 µM; TGI (COLO 205 colon): 2.77 µM; GI50 (DU-145 prostate): 5.67 µM; TGI (DU-145 prostate): > 54 µM; GI50 (EKVX NSCLC): 0.928 µM; TGI (EKVX NSCLC): > 54 µM; GI50 (HCC-2998 colon): 0.423 µM; TGI (HCC-2998 colon): 1.95 µM; GI50 (HCT-116 colon): 0.253 µM; TGI (HCT-116 colon): 2.93 µM; GI50 (HCT-15 colon): 0.293 µM; TGI (HCT-15 colon): 4.03 µM; GI50 (HL-60(TB) leukemia): 0.0748 µM; TGI (HL-60(TB) leukemia): 1.27 µM; GI50 (HOP-62 NSCLC): 0.313 µM; TGI (HOP-62 NSCLC): > 54 µM; GI50 (HOP-92 NSCLC): 0.248 µM; TGI (HOP-92 NSCLC): > 43.7 µM; GI50 (HS 578T breast): 0.128 µM; TGI (HS 578T breast): > 54 µM; GI50 (HT29 colon): 0.228 µM; TGI (HT29 colon): > 54 µM; GI50 (IGROV1 ovarian): 0.548 µM; TGI (IGROV1 ovarian): > 22.8 µM; GI50 (K-562 leukemia): 0.218 µM; TGI (K-562 leukemia): > 54 µM; GI50 (KM12 colon): 0.939 µM; TGI (KM12 colon): > 54 µM; GI50 (LOX IMVI melanoma): 0.273 µM; TGI (LOX IMVI melanoma): 1.25 µM; GI50 (M14 melanoma): 0.416 µM; TGI (M14 melanoma): > 54 µM; GI50 (MALME-3M melanoma): 0.605 µM; TGI (MALME-3M melanoma): > 43.1 µM; GI50 (MCF7 breast): 0.174 µM; TGI (MCF7 breast): > 54 µM; GI50 (MDA-MB-231 breast): 0.33 µM; TGI (MDA-MB-231 breast): > 40.3 µM; GI50 (MDA-MB-435): 0.32 µM; TGI (MDA-MB-435): > 54 µM; GI50 (MDA-MB-468 breast): 0.181 µM; TGI (MDA-MB-468 breast): 1.2 µM; GI50 (MOLT-4 leukemia): 1.22 µM; TGI (MOLT-4 leukemia): 23.2 µM; GI50 (NCI-H226 lung): 0.485 µM; TGI (NCI-H226 lung): > 54 µM; GI50 (NCI-H23 lung): 0.89 µM; TGI (NCI-H23 lung): 20.2 µM; GI50 (NCI-H460 lung): 1.37 µM; TGI (NCI-H460 lung): > 54 µM; GI50 (NCI-H522 lung): 0.182 µM; TGI (NCI-H522 lung): 2.84 µM; GI50 (NCI/ADR-RES ovarian): 0.731 µM; TGI (NCI/ADR-RES ovarian): 20.7 µM; GI50 (OVCAR-3 ovarian): 0.453 µM; TGI (OVCAR-3 ovarian): 13.4 µM; GI50 (OVCAR-4 ovarian): 0.656 µM; TGI (OVCAR-4 ovarian): > 54 µM; GI50 (OVCAR-5 ovarian): 1.52 µM; TGI (OVCAR-5 ovarian): > 54 µM; GI50 (OVCAR-8 ovarian): 0.736 µM; TGI (OVCAR-8 ovarian): > 54 µM; GI50 (PC-3 prostate): 0.657 µM; TGI (PC-3 prostate): > 54 µM; GI50 (RPMI-8226 leukemia): 0.136 µM; TGI (RPMI-8226 leukemia): 2.21 µM; GI50 (RXF 393 renal): 1.15 µM; TGI (RXF 393 renal): 6.01 µM; GI50 (SF-268 CNS): 2.99 µM; TGI (SF-268 CNS): > 54 µM; GI50 (SF-295 CNS): 0.891 µM; TGI (SF-295 CNS): > 44.7 µM; GI50 (SF-539 CNS): 0.416 µM; TGI (SF-539 CNS): > 54 µM; GI50 (SK-MEL-2 melanoma): 1.61 µM; TGI (SK-MEL-2 melanoma): > 39 µM; GI50 (SK-MEL-28 melanoma): 1.38 µM; TGI (SK-MEL-28 melanoma): > 54 µM; GI50 (SK-MEL-5 melanoma): 0.37 µM; TGI (SK-MEL-5 melanoma): 2.29 µM; GI50 (SK-OV-3 ovarian): 0.336 µM; TGI (SK-OV-3 ovarian): 5.48 µM; GI50 (SN12C renal): 1.56 µM; TGI (SN12C renal): > 54 µM; GI50 (SNB-19 CNS): 0.66 µM; TGI (SNB-19 CNS): > 40.4 µM; GI50 (SNB-75 CNS): 0.0631 µM; TGI (SNB-75 CNS): > 54 µM; GI50 (SR leukemia): 0.254 µM; TGI (SR leukemia): > 46.5 µM; GI50 (SW-620 colon): 1.81 µM; TGI (SW-620 colon): > 54 µM; GI50 (T-47D breast): 0.466 µM; TGI (T-47D breast): > 54 µM; GI50 (TK-10 renal): 0.219 µM; TGI (TK-10 renal): 52.3 µM; GI50 (U251 CNS): 0.911 µM; TGI (U251 CNS): > 54 µM; GI50 (UACC-257 melanoma): 0.436 µM; TGI (UACC-257 melanoma): > 54 µM; GI50 (UACC-62 melanoma): 0.168 µM; TGI (UACC-62 melanoma): 3.83 µM; GI50 (UO-31 renal): 0.167 µM; TGI (UO-31 renal): > 26 µM
